From patent US8926082B2, “Optically polymerizable ink jet ink, ink cartridge, and printer” (Ricoh Company, Ltd., priority 2011, dated 2015)

Assays:
[1] = "negative" or "none": SI value naturally less than 3; cited from earlier work
[2] = skin sensitization test by Local Lymph Node Assay (LLNA), Stimulation Index; format: in vivo; conditions: SI less than 3 = no problem
Description: However, inkjet ink in which such compounds are blended to provide a curing property sufficient for practical use has a relatively high viscosity in comparison with typical optical polymerizable inkjet ink. Therefore, for example, if a desirable high image density is to be obtained by increasing the blend ratio of a pigment, such inkjet ink requires an extra decrease in the viscosity to achieve stable ejection.
The Local Lymph Node Assay (LLNA) method is a skin sensitization test defined as OECD Test Guideline 429 and as described in documents such as an issue of September 2005, Vol. 25, No. 9, p 55, published by CMC Publishing Co., Ltd., when a compound has a Stimulation Index (SI) of less than 3, which is an indicator of the degree of […], the compound is determined to have no problem with regard to the skin sensitization.
The details of A1 to A14, B1 and B2, C1 and C2, and D1 in Tables 1 to 8 are as follows: The value in the parentheses at the end of A1 to A14 is an SI value. “negative” or “none” means evaluation of skin sensitization as “negative” or “none” in the MSDS sheet in which the SI value is naturally less than 3.

Compound | evaluation of skin sensitization in the MSDS sheet [1] | SI value (Stimulation Index) [2]
C=CC(=O)NCCO [Example A11, Hydroxyethyl acrylamide] | None | –
C=C(C)C(=O)OC1CCOC1=O (stereo not drawn) [Example A4, γ-butylo lactone methacrylate] | – | 2.1
Caprolactone-modified dipentaerythritol hexaacrylate [Example A7] | negative | –
